As a reminder, the pKa is the negative logarithm of the acid dissociation constant. A word on the IC50: it is the concentration that gives 50% inhibition. Lower therefore signals higher potency. Usually logP stands for the decadic logarithm of the partition coefficient of the neutral form, usually between octanol and water. Lower therefore signals lower lipophilicity. The Ki is the dissociation constant of the complex between target and ligand, obtained from inhibition or displacement. The term Log P denotes the decadic logarithm of the partition coefficient of the neutral form, usually between octanol and water. A higher Log P goes with higher lipophilicity.

Read-outs that look alike come from different tables or passages of the source. Bounds are passed on as bounds.

Data set [1] is described as follows: pKa by pH-titration method. Format: physicochemical. How it is done:
pKa is determined by pH-titration method according to the report. The titration curve E vs. VT was recorded and pKa value was calculated.

The target in data set [2] is BChE (Rattus norvegicus, UniProt Q9JKC1). Kind of data set: biochemical. Set-up: species or system Sprague–Dawley rat.
Chain of BChE (Q9JKC1 24-597): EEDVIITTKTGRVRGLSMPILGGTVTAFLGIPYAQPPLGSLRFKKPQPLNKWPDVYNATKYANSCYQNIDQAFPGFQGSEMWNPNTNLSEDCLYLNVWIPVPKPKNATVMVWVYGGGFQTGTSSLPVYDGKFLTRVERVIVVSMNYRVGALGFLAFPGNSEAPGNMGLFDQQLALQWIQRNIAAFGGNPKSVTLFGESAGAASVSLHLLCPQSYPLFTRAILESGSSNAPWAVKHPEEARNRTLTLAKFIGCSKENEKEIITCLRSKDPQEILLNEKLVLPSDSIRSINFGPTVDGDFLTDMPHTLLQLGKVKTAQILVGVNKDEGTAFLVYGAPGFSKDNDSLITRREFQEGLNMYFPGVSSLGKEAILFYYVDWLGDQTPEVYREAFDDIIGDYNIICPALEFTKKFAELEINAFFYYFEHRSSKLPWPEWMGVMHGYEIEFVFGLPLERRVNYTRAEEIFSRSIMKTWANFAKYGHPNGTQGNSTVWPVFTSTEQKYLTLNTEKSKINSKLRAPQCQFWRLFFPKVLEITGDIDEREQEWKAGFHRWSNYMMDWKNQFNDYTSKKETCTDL
The nature of data set [3]: Log P by shake flask method. The settings on record: octanol / PBS pH = 7.4, shake flask. Format: physicochemical. On the procedure:
Log P is defined as the logarithm of octanol–water partition coefficient. […] Ultraviolet spectrophotometry was applied to determine the concentration of compounds. Log p values were calculated based on the data in triplicate.

Data set [4] addresses T1, AChE (Rattus norvegicus, UniProt P37136). Nature of the data set: Kinetic study of AChE inhibition (Lineweaver–Burk). Format: biochemical. How it is done: Kinetic characterization of AChE was performed by a reported method. Compound 6g was added into the assay solution and preincubated with the enzyme at 30 °C, followed by the addition of 100 μL acetylthiocholine iodide including five concentrations. The assay solution contained 100 μL compound 6g, 100 μL DTNB, 2.79 ml 0.1 mol/l Na2HPO4/NaH2PO4 buffer (pH 7.4). Kinetic profile of the hydrolysis of acetylthiocholine iodide catalyzed by AChE was determined by the UV–Vis spectrometry at 412 nm. The parallel control experiment was carried out without compound 6g in the mixture.
Compound 6g was selected for further kinetic study since it had the strongest inhibiting activity against AChE among new synthesized compounds.
Fig. 2 Lineaweaver–Burk plot for the inhibition of AChE by compound 6g
Table 2 Kinetic parameters of AChE inhibited by compound 6g
C Michaelis-Menten Km Vmax Ki Ki’
(µmol/L) equation (mmol/L) (ΔAmin-1) (µmol//L) (µmol/L)
(1 picture or pasted object on this page, not shown here)

The target of data set [5] is T1, AChE. Kind of data set: biochemical.
[6] abbreviates: rat serum BChE, Mean ± SD, triplicate.
The mark [7] stands for this setting: rat brain AChE, Mean ± SD, triplicate.

T1 sequence (P37136 32-614): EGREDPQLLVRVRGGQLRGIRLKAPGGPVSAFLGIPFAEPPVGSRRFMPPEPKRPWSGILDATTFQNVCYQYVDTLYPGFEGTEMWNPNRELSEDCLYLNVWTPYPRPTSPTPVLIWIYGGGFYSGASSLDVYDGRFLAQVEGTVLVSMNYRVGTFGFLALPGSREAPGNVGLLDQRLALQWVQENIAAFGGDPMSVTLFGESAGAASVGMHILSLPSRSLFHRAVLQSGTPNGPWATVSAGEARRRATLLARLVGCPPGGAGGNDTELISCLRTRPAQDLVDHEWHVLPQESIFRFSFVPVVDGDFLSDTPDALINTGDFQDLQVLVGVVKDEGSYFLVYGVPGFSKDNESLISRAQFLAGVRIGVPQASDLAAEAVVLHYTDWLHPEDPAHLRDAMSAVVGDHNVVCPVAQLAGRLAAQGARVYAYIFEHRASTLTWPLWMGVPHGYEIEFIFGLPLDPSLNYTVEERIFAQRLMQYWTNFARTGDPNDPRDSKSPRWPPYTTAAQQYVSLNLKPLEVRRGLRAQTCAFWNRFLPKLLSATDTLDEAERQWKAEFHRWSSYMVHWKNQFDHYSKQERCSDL

For the compound `O=C(C=Cc1ccccc1)Nc1ccc(OCCN2CCCC2)cc1` [Compound 6g], in data set [1] (read-out: pKa), the pKa is 6.74. For the same compound, the figures for the IC50 in data set [2] (setting [6]) and in data set [5] (setting [7]) were 104 ± 1.34 µM and 3.64 ± 0.28 µM, respectively. Also, the logP in data set [3] is 1.33. For the same compound, the Vmax in data set [4] (AChE with 0.72 µmol/L compound 6g) is given as 0.023 ΔAmin-1; in data set [4] (AChE with 1.43 µmol/L compound 6g) it was 0.021 ΔAmin-1; in data set [4] (AChE with 2.86 µmol/L compound 6g), 0.019 ΔAmin-1. Also, the “non-competitive constant (Ki′)” value in data set [4] (AChE, acetylthiocholine iodide substrate) came to 2.14 µM. In data set [4] (AChE, acetylthiocholine iodide substrate, read-out: competitive inhibit constant (Ki)), the Ki is 7.27 µM. Also, in data set [4] (Lineweaver–Burk analysis), the “type of inhibition against AChE” value is reported as “mixed-type inhibition”. Moreover, the “Selectivity for AChE” value in data set [5] (IC50 (BChE)/IC50 (AChE)) is given as 28.6.

As to `C/C=C/C=C/C(=O)Nc1cccc(OCCN(C)C)c1` [Compound 17d], in data set [1] (read-out: pKa), the pKa was 7.23. The figures for the IC50 in data set [2] (setting [6]) and in data set [5] (setting [7]) were 50.43 ± 0.46 µM and 52.47 ± 0.39 µM, respectively. In data set [3], the logP was 0.99. In addition, the “Selectivity for AChE” value in data set [5] (IC50 (BChE)/IC50 (AChE)) is 0.96.

Turning to `C/C=C/C=C/C(=O)Nc1cccc(OCCN(CC)CC)c1` [Compound 17e], the pKa in data set [1] (read-out: pKa) was determined as 7.58. The IC50 is 79.5 ± 1.43 µM in data set [2] (setting [6]) and 98.7 ± 1.89 µM in data set [5] (setting [7]). The logP in data set [3] was found to be 1.72. In data set [5] (IC50 (BChE)/IC50 (AChE)), the “Selectivity for AChE” value turned out to be 0.81.

For `C/C=C/C=C/C(=O)Nc1cccc(OCCN2CCCCC2)c1` [Compound 17f], in data set [1] (read-out: pKa), the pKa worked out at 7.17. Besides, the figures for the IC50 in data set [2] (setting [6]) and in data set [5] (setting [7]) were 33.6 ± 1.59 µM and 44.2 ± 1.36 µM, respectively. The same compound had a logP in data set [3] of 2.23. For the same compound, the “Selectivity for AChE” value in data set [5] (IC50 (BChE)/IC50 (AChE)) stood at 0.76.

Take `C/C=C/C=C/C(=O)Nc1cccc(OCCN2CCCC2)c1` [Compound 17g]: the pKa in data set [1] (read-out: pKa) turned out to be 7.06. For the same compound, the IC50 in data set [2] (setting [6]) worked out at 28.5 ± 1.24 µM; in data set [5] (setting [7]) it was 18.8 ± 0.63 µM. In addition, in data set [3], the logP was 1.41. The “Selectivity for AChE” value in data set [5] (IC50 (BChE)/IC50 (AChE)) came out at 1.51.

In the case of `C/C=C/C=C/C(=O)Nc1ccc(OCCN(C)C)cc1` [Compound 18d], the pKa in data set [1] (read-out: pKa) came out at 7.21. Further, the IC50 worked out at 222 ± 8.63 µM in data set [2] (setting [6]) and 12.6 ± 0.89 µM in data set [5] (setting [7]). In data set [3], this compound returned a logP of 1.79. Moreover, the “Selectivity for AChE” value in data set [5] (IC50 (BChE)/IC50 (AChE)) came out at 17.5.

For `C/C=C/C=C/C(=O)Nc1ccc(OCCN(CC)CC)cc1` [Compound 18e], the pKa in data set [1] (read-out: pKa) stood at 7.16. Moreover, the IC50 in data set [2] (setting [6]) worked out at 94.5 ± 4.26 µM; in data set [5] (setting [7]), 189 ± 4.55 µM. In data set [3], this compound displayed a logP of 1.31. Besides, the “Selectivity for AChE” value in data set [5] (IC50 (BChE)/IC50 (AChE)) came out at 0.50.

Turning to `C/C=C/C=C/C(=O)Nc1ccc(OCCN2CCCCC2)cc1` [Compound 18f], the pKa in data set [1] (read-out: pKa) is 7.06. For the same compound, the IC50 in data set [2] (setting [6]) was found to be 271 ± 4.56 µM; in data set [5] (setting [7]), 12.3 ± 0.76 µM. Further, the logP in data set [3] amounted to 1.61. For the same compound, the “Selectivity for AChE” value in data set [5] (IC50 (BChE)/IC50 (AChE)) is 22.1.

For `C/C=C/C=C/C(=O)Nc1ccc(OCCN2CCCC2)cc1` [Compound 18g], the pKa in data set [1] (read-out: pKa) came out at 7.73. The IC50 was found to be 118 ± 6.79 µM in data set [2] (setting [6]) and 13.6 ± 1.24 µM in data set [5] (setting [7]). Also, the logP in data set [3] came to 1.18. Further, the “Selectivity for AChE” value in data set [5] (IC50 (BChE)/IC50 (AChE)) is given as 8.63.

Consider `CCCCCC(=O)Nc1ccccc1OCCN(C)C` [Compound 22d], for which the pKa in data set [1] came out at 7.32. In addition, the IC50 in data set [2] is 26.6 ± 1.36 µM; in data set [5], 186 ± 8.22 µM. In addition, in data set [3], the “Log P” value was 1.23. For the same compound, the “Selectivity for AChE” value in data set [5] is 0.14.

With `CCCCCC(=O)Nc1ccccc1OCCN(CC)CC` [Compound 22e], the pKa in data set [1] (read-out: pKa) came out at 7.08. Further, the IC50 was 37.2 ± 2.24 µM in data set [2] (setting [6]) and > 500 µM in data set [5] (setting [7]). The logP in data set [3] worked out at 1.67. The “Selectivity for AChE” value in data set [5] (IC50 (BChE)/IC50 (AChE)) is <0.07.

On to `CCCCCC(=O)Nc1ccccc1OCCN1CCCCC1` [Compound 22f], for which, in data set [1] (read-out: pKa), the pKa came out at 6.99. For the same compound, the IC50 came to 9.04 ± 0.27 µM in data set [2] (setting [6]) and 325 ± 7.65 µM in data set [5] (setting [7]). Besides, the logP in data set [3] came to 1.11. Besides, in data set [5] (IC50 (BChE)/IC50 (AChE)), the “Selectivity for AChE” value worked out at 0.03.

As for `CCCCCC(=O)Nc1ccccc1OCCN1CCCC1` [Compound 22g], the pKa in data set [1] (read-out: pKa) worked out at 7.16. Moreover, the IC50 in data set [2] (setting [6]) is 18.6 ± 0.32 µM; in data set [5] (setting [7]) it was > 500 µM. Also, in data set [3], the logP stood at 1.11. Besides, the “Selectivity for AChE” value in data set [5] (IC50 (BChE)/IC50 (AChE)) is given as <0.04.

As to `CCCCCC(=O)Nc1cccc(OCCN(C)C)c1` [Compound 23d], the pKa in data set [1] (read-out: pKa) came out at 6.52. Also, the IC50 amounted to 7.89 ± 0.89 µM in data set [2] (setting [6]) and 60.6 ± 2.18 µM in data set [5] (setting [7]). Further, the logP in data set [3] was 0.37. For the same compound, in data set [5] (IC50 (BChE)/IC50 (AChE)), the “Selectivity for AChE” value was determined as 0.13.

As for `CCCCCC(=O)Nc1cccc(OCCN(CC)CC)c1` [Compound 23e], in data set [1] (read-out: pKa), the pKa came out at 7.15. Moreover, the half-maximal inhibitory concentration (IC50) in data set [2] (setting [6]) amounted to 0.67 ± 0.04 µM; in data set [5] (setting [7]), 125 ± 4.23 µM. Also, the logP in data set [3] was found to be 0.93. Besides, the “Selectivity for AChE” value in data set [5] (IC50 (BChE)/IC50 (AChE)) was found to be 0.01.

Take `CCCCCC(=O)Nc1cccc(OCCN2CCCCC2)c1` [Compound 23f]: the pKa in data set [1] (read-out: pKa) was determined as 7.32. Further, the IC50 is 0.22 ± 0.02 µM in data set [2] (setting [6]) and 76.7 ± 3.17 µM in data set [5] (setting [7]). For the same compound, the logP in data set [3] amounted to 1.55. Also, the “Selectivity for AChE” value in data set [5] (IC50 (BChE)/IC50 (AChE)) turned out to be 0.002.

For `CCCCCC(=O)Nc1cccc(OCCN2CCCC2)c1` [Compound 23g], the pKa in data set [1] (read-out: pKa) turned out to be 7.69. In addition, the results for the IC50 in data set [2] (setting [6]) and in data set [5] (setting [7]) were 0.34 ± 0.01 µM and 50.7 ± 2.66 µM, respectively. In data set [3], this compound registered a logP of 1.37. Besides, in data set [5] (IC50 (BChE)/IC50 (AChE)), the “Selectivity for AChE” value is 0.01.

For the compound `CCCCCC(=O)Nc1ccc(OCCN(C)C)cc1` [Compound 24d], the pKa in data set [1] (read-out: pKa) is 7.16. For the same compound, the IC50 came out at 33.8 ± 4.21 µM in data set [2] (setting [6]) and 41.7 ± 2.89 µM in data set [5] (setting [7]). The compound further had a logP in data set [3] of 0.72. Besides, the “Selectivity for AChE” value in data set [5] (IC50 (BChE)/IC50 (AChE)) was determined as 0.81.

In the case of `CCCCCC(=O)Nc1ccc(OCCN(CC)CC)cc1` [Compound 24e], in data set [1] (read-out: pKa), the pKa was 7.48. Besides, the IC50 in data set [2] (setting [6]) was 9.9 ± 1.28 µM; in data set [5] (setting [7]), > 500 µM. This compound showed a logP in data set [3] of 1.1. Further, the “Selectivity for AChE” value in data set [5] (IC50 (BChE)/IC50 (AChE)) was <0.02.

Turning to `CCCCCC(=O)Nc1ccc(OCCN2CCCCC2)cc1` [Compound 24f], in data set [1] (read-out: pKa), the pKa stood at 7.16. Moreover, the IC50 in data set [2] (setting [6]) came to 17 ± 2.03 µM; in data set [5] (setting [7]), 31.7 ± 2.74 µM. In data set [3], the logP came out at 1.54. In data set [5] (IC50 (BChE)/IC50 (AChE)), the “Selectivity for AChE” value came out at 0.54.

Turning to `CCCCCC(=O)Nc1ccc(OCCN2CCCC2)cc1` [Compound 24g], in data set [1] (read-out: pKa), the pKa was determined as 6.92. Further, the IC50 amounted to 13.9 ± 1.66 µM in data set [2] (setting [6]) and 16.9 ± 0.91 µM in data set [5] (setting [7]). Besides, in data set [3], the logP came out at 0.16. The “Selectivity for AChE” value in data set [5] (IC50 (BChE)/IC50 (AChE)) was determined as 0.82.

The record behind these values is article PMC6010128, “Structure–activity relationship investigation of tertiary amine derivatives of cinnamic acid as acetylcholinesterase and butyrylcholinesterase inhibitors: compared with that of phenylpropionic acid, sorbic acid and hexanoic acid” (Journal of Enzyme Inhibition and Medicinal Chemistry, 2018).
